Reference: patent publication US6548495B2, “Dihydro-benzo [B] [1,4] diazepin-2-one derivatives” (Hoffmann-La Roche Inc., priority 2002, dated 2003)

melting point | SMILES
238 to 239 °C (dec.) | NC(=O)c1cccc(C2=Nc3ccc(-n4cccc4)cc3NC(=O)C2)c1 [Example 8, 3-(4-oxo-7-Pyrrol-1-yl-4,5-dihydro-3H-benzo[b][1,4]diazepin-2-yl)-benzamide]
198 to 201 °C | CCOC(=O)c1csc(-c2cccc(C3=Nc4ccc(-n5cccc5)cc4NC(=O)C3)c2)n1 [Example 19, 2-[3-(4-oxo-7-Pyrrol-1-yl-4,5-dihydro-3H-benzo[b][1,4]diazepin-2-yl)-phenyl]-thiazole-4-carboxylic Acid Ethyl Ester]
213 to 215 °C | CCOC(=O)c1nc(-c2cccc(C3=Nc4ccc(-n5cccc5)cc4NC(=O)C3)c2)cs1 [Example 28, 4-[3-(4-oxo-7-Pyrrol-1-yl-4,5-dihydro-3H-benzo[b][1,4]diazepin-2-yl)-phenyl]-thiazole-2-carboxylic Acid Ethyl Ester]
248 to 250 °C | Cc1cc(-c2cccc(C3=Nc4ccc(-n5cccc5)cc4NC(=O)C3)c2)on1 [Example 29, 4-[3-(3-Methyl-isoxazol-5-yl)-phenyl]-8-pyrrol-1-yl-1,3-dihydro-benzo[b][1,4]diazepin-2-one]
267 to 269 °C | NC(=O)c1nc(-c2cccc(C3=Nc4ccc(-n5cccc5)cc4NC(=O)C3)c2)cs1 [Example 30, 4-[3-(4-oxo-7-Pyrrol-1-yl-4,5-dihydro-3H-benzo[b][1,4]diazepin-2-yl)-phenyl]-thiazole-2-carboxylic Acid Amide]

Second part, the compound before the results:

SMILES | melting point
Cc1cc(-c2cccc(C3=Nc4cc(N5CCOCC5)c(C(F)(F)F)cc4NC(=O)C3)c2)on1 [Example 3, 4-[3-(3-Methyl-isoxazol-5-yl)-phenyl]-7-morpholin-4-yl-8-trifluoromethyl-1,3-dihydro-benzo[b][1,4]diazepin-2-one] | 170 °C
N#Cc1cccc(C2=Nc3ccc(-n4cc(C#N)c(-c5ccccc5Cl)c4)cc3NC(=O)C2)c1 [Example 5, 4-(2-Chloro-phenyl)-1-[2-(3-cyano-phenyl)-4-oxo-4,5-dihydro-3H-benzo[b][1,4]diazepin-7-yl]-1H-pyrrole-3-carbonitrile] | 252 °C (dec.)
N#Cc1cccc(C2=Nc3ccc(-n4cc(C#N)c(-c5ccccc5)c4)cc3NC(=O)C2)c1 [Example 6, 1-[2-(3-Cyano-phenyl)-4-oxo-4,5-dihydro-3H-benzo[b][1,4]diazepin-7-yl]-4-phenyl-1H-pyrrole-3-carbonitrile] | 274 °C (dec.)
O=C1CC(c2cccc(I)c2)=Nc2ccc(-n3cccc3)cc2N1 [Example 7, 4-(3-Iodo-phenyl)-8-pyrrol-1-yl-1,3-dihydro-benzo[b][1,4]diazepin-2-one] | 215 to 217 °C (dec.)
COCCOc1cc2c(cc1-n1cccc1)NC(=O)CC(c1cccc(C#N)c1)=N2 [Example 10, 3-[8-(2-Methoxy-ethoxy)-4-oxo-7-pyrrol-1-yl-4,5-dihydro-3H-benzo[b][1,4]diazepin-2-yl]-benzonitrile] | 189 to 195 °C
COC(=O)c1cccn1-c1ccc2c(c1)NC(=O)CC(c1cccc(C#N)c1)=N2 [Example 15, 1-[2-(3-Cyano-phenyl)-4-oxo-4,5-dihydro-3H-benzo[b][1,4]diazepin-7-yl]-1H-pyrrole-2-carboxylic Acid Methyl Ester] | > 207 °C (dec.)
O=C1CC(c2cccc(-c3ocnc3C(=O)NCCO)c2)=Nc2ccc(-n3cccc3)cc2N1 [Example 24, 5-[3-(4-oxo-7-Pyrrol-1-yl-4,5-dihydro-3H-benzo[b][1,4]diazepin-2-yl)-phenyl]-oxazole-4-carboxylic Acid (2-Hydroxy-ethyl)-amide] | 228 to 230 °C
O=C1CC(c2cccc(-c3nc(CO)co3)c2)=Nc2ccc(-n3cccc3)cc2N1 [Example 26, 4-[3-(4-Hydroxymethyl-oxazol-2-yl)-phenyl]-8-pyrrol-1-yl-1,3-dihydro-benzo[b][1,4]diazepin-2-one] | 240 to 242 °C
